Experimental data taken from ChEMBL document CHEMBL3885861, “Open TG-GATES”.

Species on record: Rattus norvegicus
Assay: Open TG-GATES - Regimen: Single
Format: toxicity, organism-based, Sprague-Dawley
Parameters: regimen Single, gender Male, age 6 weeks
Details: in vivo, iv, route intravenous injection; for Eos / Fbg / Ht / Lym / MCH / MCHC / MCV / Mono / PT / Plat / RBC / Ret / Bas / Hb / Neu: tissue Blood; for KIDNEY_L / KIDNEY_R / KIDNEY_TOTAL: tissue Kidney; for LIVER: tissue Liver; for ALP / ALT / AST / CRE / DBIL / GLC / K / Na / RALB / TBIL / TC / TG / TP / gamma-GTP / LDH: tissue Plasma
[1] = 3 mg/kg, 3 h, dose level Middle
[2] = 3 mg/kg, 6 h, dose level Middle
[3] = 3 mg/kg, 9 h, dose level Middle
[4] = 3 mg/kg, 24 h, dose level Middle

For COc1cccc2c1C(=O)c1c(O)c3c(c(O)c1C2=O)C[C@@](O)(C(=O)CO)C[C@@H]3O[C@H]1C[C@H](N)[C@H](O)[C@H](C)O1 [DOXORUBICIN], the Eos [1] was 0.6%, the Fbg [1] was 260.4 mg/dL and the Ht [1] was 38%. For the same compound, the Lym [1] was 78.6%, the MCH [1] was 21.6 pg and the MCHC [1] was 34.7%. It also gave an MCV [1] of 62.4 fL, a Mono [1] of 3.8% and a PT [1] of 16.2 s. The Plat [1] was 113.3 x10_4/uL, the RBC [1] was 609.6 x10_4/ul and the Ret [1] was 6.7%. For the same compound, the KIDNEY_L [1] was 0.9 g, the KIDNEY_R [1] was 0.9 g and the KIDNEY_TOTAL [1] was 1.8 g. The LIVER [1] was 9.4 g, the ALP [1] was 1266.2 IU/L and the ALT [1] was 43.2 IU/L. The AST [1] was 80.2 IU/L, the CRE [1] was 0.2 mg/dL and the DBIL [1] was 0.002 mg/dL. For the same compound, the GLC [1] was 174.2 mg/dL, the K [1] was 4.1 meq/L and the Na [1] was 141.2 meq/L. The RALB [1] was 3 g/dL, the TBIL [1] was 0.022 mg/dL and the TC [1] was 65.6 mg/dL. For the same compound, the TG [1] was 99.4 mg/dL, the TP [1] was 5.1 g/dL and the gamma-GTP [1] was 1 IU/L. For the same compound, the TERMINAL_BW [2] was 208.1 g, the Bas [2] was 0% and the Eos [2] was 0.8%. The Fbg [2] was 294 mg/dL, the Ht [2] was 37.7% and the Lym [2] was 79%. The MCH [2] was 21.7 pg, the MCHC [2] was 34.3% and the MCV [2] was 63.3 fL. For the same compound, the Mono [2] was 4.2%, the PT [2] was 16 s and the Plat [2] was 130.3 x10_4/uL. The RBC [2] was 595.4 x10_4/ul, the Ret [2] was 7% and the KIDNEY_L [2] was 0.9 g. The KIDNEY_R [2] was 0.9 g, the KIDNEY_TOTAL [2] was 1.8 g and the LIVER [2] was 8.4 g. The ALP [2] was 1404.2 IU/L, the AST [2] was 77.2 IU/L and the CRE [2] was 0.1 mg/dL. For the same compound, the DBIL [2] was 0.002 mg/dL, the GLC [2] was 177 mg/dL and the K [2] was 4 meq/L. It also gave an LDH [2] of 128.2 IU/L, a Na [2] of 140.6 meq/L and an RALB [2] of 2.9 g/dL. The TBIL [2] was 0.032 mg/dL, the TC [2] was 73.2 mg/dL and the TG [2] was 59.6 mg/dL. The TP [2] was 5.1 g/dL, the gamma-GTP [2] was 1.8 IU/L and the TERMINAL_BW [3] was 210 g. The Bas [3] was 0%, the Eos [3] was 0.6% and the Fbg [3] was 280.6 mg/dL. For the same compound, the Hb [3] was 13 g/dL, the Ht [3] was 38.2% and the Lym [3] was 76%. The MCH [3] was 21.1 pg, the MCHC [3] was 34.2% and the MCV [3] was 61.8 fL. For the same compound, the Mono [3] was 4.2%, the Neu [3] was 18% and the PT [3] was 15.8 s. The Plat [3] was 117 x10_4/uL, the RBC [3] was 617.6 x10_4/ul and the Ret [3] was 6.9%. For the same compound, the KIDNEY_L [3] was 0.9 g, the KIDNEY_R [3] was 0.9 g and the KIDNEY_TOTAL [3] was 1.8 g. The LIVER [3] was 8.1 g, the ALP [3] was 1233.4 IU/L and the ALT [3] was 33.2 IU/L. The AST [3] was 69.2 IU/L, the CRE [3] was 0.1 mg/dL and the DBIL [3] was 0 mg/dL. It also gave a GLC [3] of 186.8 mg/dL, a K [3] of 4.3 meq/L and a Na [3] of 140.6 meq/L. For the same compound, the RALB [3] was 2.8 g/dL, the TBIL [3] was 0.018 mg/dL and the TC [3] was 71 mg/dL. The TG [3] was 70.2 mg/dL, the TP [3] was 5.1 g/dL and the gamma-GTP [3] was 1.2 IU/L. It also gave a TERMINAL_BW [4] of 215.4 g, a Bas [4] of 0% and an Eos [4] of 0.2%. The Fbg [4] was 277.8 mg/dL, the Hb [4] was 13.4 g/dL and the Ht [4] was 37.4%. It also gave a Lym [4] of 80.8%, an MCH [4] of 21.6 pg and an MCHC [4] of 35.7%. The MCV [4] was 60.4 fL, the Mono [4] was 4% and the Neu [4] was 13.2%. The PT [4] was 16.6 s, the Plat [4] was 118.9 x10_4/uL and the RBC [4] was 620 x10_4/ul. For the same compound, the Ret [4] was 4.5%, the KIDNEY_L [4] was 0.9 g and the KIDNEY_R [4] was 0.9 g. For the same compound, the KIDNEY_TOTAL [4] was 1.9 g, the ALP [4] was 1504.4 IU/L and the AST [4] was 68.2 IU/L. The CRE [4] was 0.2 mg/dL, the DBIL [4] was 0.002 mg/dL and the GLC [4] was 191.4 mg/dL. The K [4] was 4.5 meq/L, the LDH [4] was 124.6 IU/L and the Na [4] was 143 meq/L. The RALB [4] was 3 g/dL, the TBIL [4] was 0.018 mg/dL and the TC [4] was 75 mg/dL. For the same compound, the TG [4] was 88.6 mg/dL, the TP [4] was 5.2 g/dL and the gamma-GTP [4] was 1 IU/L. It also gave a TERMINAL_BW (10 mg/kg, 3 h, dose level High) of 211.4 g and a Bas (10 mg/kg, 3 h, dose level High) of 0%.
